Data taken from patent US11660303B2, “2-phenylimidazo[4,5-b]pyridin-7-amine derivates useful as inhibitors of mammalian tyrosine kinase ROR1 activity” (KANCERA AB, priority 2016, dated 2023).
pIC50: −log10 of the molar value.

Assays:
Format in all cases: cell-based
[1] = test system: H211; test: Alamar Blue cell viability assay, H211; conditions: Homo sapiens, NCI-H211; H211, Small cell lung cancer, alamarBlue, incubation 72 h
Description: (§1) Alamar Blue Cell Viability Assay
(§2) Cells were plated 12 hours prior to start of drug treatment, which lasted for 72 hours for all cytotoxicity experiments. Cell viability was estimated by alamarBlue™ Cell Viability Reagent (ThermoFisher, Waltham, Mass.) per manufacturer's instructions.
(§3) Results, in terms of IC50 (μM), are shown in Table 4 for a representative compound of the invention, viz. Example 172.

[2] = test system: H23; test: MTT cytotoxicity assay, H23; conditions: Homo sapiens, NCI-H23, H23, Non-small cell lung cancer, incubation 72 h
Description: (§4) The MTT assay (Sigma-Aldrich) was used to measure cytotoxic capability of the ROR1 tyrosine kinase inhibitors (ROR1-TKI). Briefly, 2×10^4 cancer cells were incubated in triplicates in 200 μL of RPMI-1640 containing 10% FCS in 96 well plates. ROR1-TKI (dissolved in DMSO), were added to the cells. Cells treated with DMSO were used as negative control. Cells were incubated for 48, 72 or 96 h. An amount of 20 μL MTT solution was added and the cell suspension was incubated for 4 h at 37 degrees C. The reaction was stopped by adding 100 μL MTT solvent (10% SDS in 0.01 M HCl) and was incubated for further 2-4 h. The plate was then read by a microplate reader at 570 nm.
as §3

[3] = test system: AMO-1; test: MTT cytotoxicity assay, AMO-1; conditions: Homo sapiens, AMO1, AMO-1, Multiple Myeloma (MM), incubation 96 h
Description: as §4, §3

[4] = test system: H69; test: Alamar Blue cell viability assay, H69; conditions: Homo sapiens, NCI-H69; H69, Small cell lung cancer (SCLC), alamarBlue, incubation 72 h
Description: as §1, §2, §3

[5] = test system: SKOV3; test: MTT cytotoxicity assay, SKOV3; conditions: Homo sapiens, SK-OV-3, SKOV3, Ovarian cancer (OC), incubation 48 h
Description: as §4, §3

[6] = test system: MDA-V; test: MTT cytotoxicity assay, MDA-V; conditions: Hodgkin’s Lymphoma (HL), incubation 48 h
Description: as §4, §3

[7] = test system: HPB; test: MTT cytotoxicity assay, HPB; conditions: T-cell acute lymphoblastic leukemia (T-ALL), incubation 48 h
Description: as §4, §3

[8] = test system: KE37; test: MTT cytotoxicity assay, KE37; conditions: Homo sapiens, KE-37, KE37, T-cell acute lymphoblastic leukemia (T-ALL), incubation 48 h
Description: as §4, §3

[9] = test system: MS; test: MTT cytotoxicity assay, MS; conditions: Diffuse large B-cell lymphoma (DLBCL), incubation 48 h
Description: as §4, §3

[10] = test system: SupB15; test: Flow cytometry Annexin V/PI apoptosis assay, SupB15; conditions: Homo sapiens, SUP-B15, SupB15, B-cell acute lymphoblastic leukemia (B-ALL), incubation 48 h
Description: (§5) Flow Cytometry Annexin V/PI Apoptosis Assay
(§6) An amount of 1 ml (10^5 cells/mL) of cells were seeded in each well of 6-well plates with and without compounds for 48 h. Cells were collected, washed with PBS, suspended in 100 μL of Annexin-V binding buffer (BD Biosciences) containing FITC-conjugated Annexin-V and PI (BD Biosciences) and incubated at room temperature in the dark for 20 min. After 20 min of incubation, 150 μL Annexin-V binding buffer was added. Viable cells were identified as the double negative Annexin-V and PI population. Samples were analyzed by a FACS Canto II Flow-cytometer (BD Biosciences).
as §3

[11] = test system: HDLM2; test: Flow cytometry Annexin V/PI apoptosis assay, HDLM2; conditions: Homo sapiens, HDLM-2, HDLM2, Hodgkin’s Lymphoma (HL), incubation 48 h
Description: as §5, §6, §3

[12] = test system: MDA-V; test: Flow cytometry Annexin V/PI apoptosis assay, MDA-V; conditions: Hodgkin’s Lymphoma (HL), incubation 48 h
Description: as §5, §6, §3

[13] = test system: Caov3; test: MTT cytotoxicity assay, Caov3; conditions: Homo sapiens, Caov-3, Caov3, Ovarian cancer (OC), incubation 48 h
Description: as §4, §3

[14] = test system: JVM2; test: MTT cytotoxicity assay, JVM2; conditions: Homo sapiens, JVM-2, JVM2, Mantle Cell Lymphoma (MCL), incubation 96 h
Description: as §4, §3

[15] = test system: A549; test: MTT cytotoxicity assay, A549; conditions: Homo sapiens, A549, Non-small cell lung cancer (NSCLC), incubation 72 h
Description: as §4, §3

[16] = test system: A2780; test: MTT cytotoxicity assay, A2780; conditions: Homo sapiens, A2780, Ovarian cancer (OC), incubation 48 h
Description: as §4, §3

[17] = test system: H146; test: Alamar Blue cell viability assay, H146; conditions: Homo sapiens, NCI-H146; H146, Small cell lung cancer, alamarBlue, incubation 72 h
Description: as §1, §2, §3

[18] = test system: Granta-519; test: MTT cytotoxicity assay, Granta-519; conditions: Homo sapiens, Granta-519, Mantle Cell Lymphoma (MCL), incubation 96 h
Description: as §4, §3

[19] = test system: SEM cells; test: MTT cytotoxicity assay, SEM; conditions: B-cell acute lymphoblastic leukemia (B-ALL), incubation 48 h
Description: as §4, §3

[20] = test system: MEC-2; test: MTT cytotoxicity assay, MEC-2; conditions: MEC2, MEC-2, CLL cell line, DSMZ bank, (ACC 500), incubation 48 h
Description: as §4, §3

[21] = test system: MDA-MB-231; test: MTT cytotoxicity assay, MDA-MB-231; conditions: Homo sapiens, MDA-MB-231, Triple negative breast cancer, incubation 48 h
Description: as §4, §3

pIC50 [1]: 6.74
pIC50 [10]: 7.18
pIC50 [11]: 7.00
pIC50 [12]: 7.00
pIC50 [17]: 6.64
Compound: CCOCCN1CCN(c2ccc(-c3nc4c(NC5CCN(CC)CC5)c(Br)cnc4[nH]3)cc2)CC1 [Example 172, 6-Bromo-2-{4-[4-(2-ethoxyethyl)piperazin-1-yl]phenyl}-N-(1-ethylpiperidin-4-yl)-3H-imidazo[4,5-b]pyridin-7-amine]
pIC50 [2]: 6.82
pIC50 [3]: 7.30
pIC50 [4]: 6.60
pIC50 [5]: 6.60
pIC50 [6]: 7.30
pIC50 [7]: 7.00
pIC50 [8]: 6.70
pIC50 [9]: 7.00
pIC50 [13]: 6.60
pIC50 [14]: 6.70
pIC50 [15]: 7.00
pIC50 [16]: 7.00
pIC50 [18]: 6.60
pIC50 [19]: 7.60
pIC50 [20]: 6.96
pIC50 [21]: 6.82
